Publication PMC5947539, “Cyclometalated iridium(III) complexes as lysosome-targeted photodynamic anticancer and real-time tracking agents” (Chemical Science, 2015)
Like-named read-outs stand apart in the source and are kept apart here.

Assays:
A549cisR cells = assay: (Photo)cytotoxicity, MTT assay, A549cisR; type: cell-based, human; conditions: for PI (phototoxicity index): IC50 dark / IC50 light
Method: (§1) Cell lines and culture conditions
(§2) A549, A549cisR, MCF-7 and LO2 cells were obtained from Experimental Animal Center of Sun Yat-sen University (Guangzhou, China). Cells were maintained in DMEM (Dulbecco’s modified […]
(§3) medium, which contained 10% FBS (fetal bovine serum, Gibco BRL), 100 ȝg/mL streptomycin (Gibco BRL), and 100 U/mL penicillin (Gibco BRL). The cells were cultured in a humidified […]
(§4) In each experiment, cells treated with vehicle control (1% DMSO) were kept as the reference group.
(§5) The cytotoxicity in the dark and phototoxicity of the tested compounds toward A549, A549cisR, MCF-7 and LO2 cell lines was determined by MTT assay.
(§6) For cytotoxicity in the dark, cells cultured in 96-well plates were grown to confluence. The compounds were dissolved in DMSO (1%, v/v), and diluted with fresh media immediately. the cells were incubated with a series of concentrations of the tested compounds for 44 h at 37 °C. 20 ȝL of MTT solution was then added to each well, and the plates were incubated for an additional 4 h. The media was carefully removed, and DMSO was added (150 µL per well) and incubated for 10 min with shaking. The absorbance at 595 nm was measured using a microplate reader (Infinite M200 Pro, Tecan, Männedorf, Switzerland).
(§7) For phototoxicity, the cells were incubated with the tested compounds for 12 h. The media containing the iridium complexes was removed and fresh media without the complexes was added.
(§8) After another 32 h of incubation, MTT was added. The cytotoxicity was determined as described

MCF-7 cells = assay: (Photo)cytotoxicity, MTT assay, MCF-7; type: cell-based, human; conditions: for PI (phototoxicity index): IC50 dark / IC50 light
Method: as §1, §2, §3, §4, §5, §6, §7, §8

A549 cells [1] = assay: (Photo)cytotoxicity, MTT assay, A549; type: cell-based, human; conditions: for PI (phototoxicity index) / IC50: A549; for PI (phototoxicity index): IC50 dark / IC50 light
Method: as §1, §2, §3, §4, §5, §6, §7, §8

LO2 cells = assay: (Photo)cytotoxicity, MTT assay, LO2; type: cell-based, human; conditions: for PI (phototoxicity index): IC50 dark / IC50 light
Method: as §1, §2, §3, §4, §5, §6, §7, §8

[2] = tested on: caspase-3/7 activity in A549 cells; assay: Caspase-3/7 activity assay (Caspase-Glo); type: cell-based, human; conditions: for increase in caspase-3/7 activity: vs control cells in the dark
Method: (§9) concentrations for 24 h with or without light irradiation. After A549 cells were incubated with 2 for 12 h, the cells were irradiated with a 425 nm LED light array (40 mW cmí2) for 15 min (36 J cmí2).
(§10) When necessary, the cells were incubated with NaN3 (10 mM) for 1 h before PDT treatment. The cells were washed twice with PBS gently and fixed with 4% paraformalclehyde for 30 min at room temprature. The cells were washed with PBS twice, and then Hoechst 33342 (5 µg/mL) in PBS was added to the media by gently shaking in the dark for 10 min. The cells were washed with PBS twice and visualized by confocal microscopy (LSM 710, Carl Zeiss, Göttingen, Germany). Emission was collected at 460 ± 20 nm upon excitation at 405 nm.
Caspase-3/7 activity assay
Caspase-3/7 activity was measured using Caspase-Glo® Assay kit (Promega, Madison, WI, USA) according to the manufacturer's instructions. Briefly, cells were cultured in 96-well plates and treated […]
incubated with 2 or cisplatin for 12 h, the cells were irradiated with a 425 nm LED light array (40 mW cmí2) for 15 min (36 J cmí2). 100 µL of Caspase-Glo® 3/7 reagent was added to each well containing 100 µL culture media. The mixture was incubated at room temperature for 1 h and then the luminescence was measured using a microplate reader (Infinite M200 Pro, Tecan, Männedorf, […]
The cells were further treated with 10 ȝM DCF-DA for 20 min at 37 °C in the dark and then then irradiated with a 425 nm LED light array (40 mW cmí2) for 15 min (36 J cmí2). After the treatment, the cells were harvested and washed twice with serum-free RPMI 1640, the fluorescence intensity of DCF in A549 cells was measured by flow cytometry (FACSCaliburTM, Becton Dickinson, Franklin Lakes, NJ, USA). The results were analyzed by FlowJo Software (Tree Star, OR, USA). […]
(§11) concentrations for 12 h and then irradiated with a 425 nm LED light array (40 mW cmí2) for 15 min

A549 cells [3] = conditions: A549, 0.5 μM with light (36 J cm–2), vs control cells treated with light alone
Method: as §9
as §10, with “nm. […]” for “nm.”
Caspase-3/7 activity was measured using Caspase-Glo® Assay kit (Promega, Madison, WI, USA) according to the manufacturer's instructions. […]
incubated with 2 or cisplatin for 12 h, the cells were irradiated with a 425 nm LED light array (40 mW cmí2) for 15 min (36 J cmí2). […] The mixture was incubated at room temperature for 1 h and then the luminescence was measured using a microplate reader (Infinite M200 Pro, Tecan, Männedorf, […]
The cells were further treated with 10 ȝM DCF-DA for 20 min at 37 °C in the dark and then then irradiated with a 425 nm LED light array (40 mW cmí2) for 15 min (36 J cmí2). […] The results were analyzed by FlowJo Software (Tree Star, OR, USA). […]

A549 cells [4] = conditions: A549, 0.5 μM with light (36 J cm–2)
Method: Annexin V/propidium iodide double staining assay
The assay was performed according to the manufacturer's (Sigma Aldrich, USA) protocol. A549 cells
a 425 nm LED light array (40 mW cmí2) at different light doses (12, 24 or 36 J cmí2).
necessary, the cells were incubated with NaN3 (10 mM) for 1 h before PDT treatment. For flow
cytometry analysis, the cells were harvested and re-suspended in 500 ȝL annexin-binding buffer (10
mM HEPES, 140 mM NaCl, 2.5 mM CaCl2, pH 7.4). The cell suspension was stained with 5 ȝL
annexin V and 10 ȝL propidium iodide at room temperature for 15 min in the dark, and then
analyzed immediately by flow cytometry (FACSCaliburTM, Becton Dickinson, NJ, USA). The
resulting dot blots were analyzed by FlowJo Software (Tree Star, OR, USA). For confocal
microscopy analysis, the cells were washed twice with PBS, and then incubated with 500 ȝL annexin-binding buffer supplemented with 5 ȝL annexin V and 10 ȝL propidium iodide at room
temperature for 15 min in the dark. The samples were visualized immediately by confocal
microscopy (LSM 710, Carl Zeiss, Göttingen, Germany). Emission was collected at 530 ± 20 nm
(annexin V) and 620 ± 20 nm (propidium iodide) upon excitation at 488 nm.

A549 and LO2 cells = conditions: 0.5 μM, light 36 J cm–2, annexin V/propidium iodide staining
Method: as §11

[5] = dark, incubated 48 h, read-out: IC50 Dark
[6] = incubated 12 h then 425 nm LED 15 min (36 J cm–2), read-out: IC50 (light) (converted)
[7] = Homo sapiens, dark, incubated 48 h, read-out: IC50 Dark
[8] = Homo sapiens, incubated 12 h then 425 nm LED 15 min (36 J cm–2), read-out: IC50 (light) (converted)
[9] = Homo sapiens, L02, dark, incubated 48 h, read-out: IC50 Dark
[10] = Homo sapiens, L02, incubated 12 h then 425 nm LED 15 min (36 J cm–2), read-out: IC50 (light) (converted)

Compound | PI (phototoxicity index) (A549cisR cells) | IC50 (A549cisR cells; [5]) | IC50 (A549cisR cells; [6]) | PI (phototoxicity index) (MCF-7 cells) | PI (phototoxicity index) (A549 cells [1]) | IC50 (A549 cells [1]; [5]) | IC50 (A549 cells [1]; [6]) | PI (phototoxicity index) (LO2 cells) | IC50 (LO2 cells; [5]) | IC50 (LO2 cells; [6]) | IC50 (A549cisR cells; [7]) | IC50 (A549cisR cells; [8]) | IC50 (A549 cells [1]; [7]) | IC50 (A549 cells [1]; [8]) | IC50 (LO2 cells; [9]) | IC50 (LO2 cells; [10]) | further results
N.N.[Cl][Pt][Cl] [Cisplatin, reference compound] | 1.0 | 85.5 ± 5.3 µM | 86.1 µM | 1.1 | 1.0 | 23.3 ± 2.6 µM | 22.6 µM | 1.0 | 31.2 ± 2.7 µM | 30.5 µM |  |  |  |  |  |  | effect of light irradiation on caspase-3/7 activation ([2]; A549, 425 nm light (36 J cm–2)): no effect
c1ccc2c(c1)[nH]c1c(-c3ncc[nH]3)nccc12 [Complex L1, 1-(2-imidazolyl)-β-carboline, reference compound] | 2.2 |  |  | 16.3 | >5.7 |  |  | >2.1 |  |  | 42.6 ± 3.8 µM | 19.7 µM | > 100 µM | 17.6 µM | > 100 µM | 47.4 µM | 
c1ccc2[nH]c(-c3nccc4c3[nH]c3ccccc34)nc2c1 [Complex L2, 1-(2-benzimidazolyl)-β-carboline] |  |  |  |  |  |  |  |  |  |  | > 100 µM | > 100 µM | > 100 µM | > 100 µM | > 100 µM | > 100 µM | 
Ir2(dfppy)4Cl2 [reference compound] | 1.0 | 4.3 ± 0.5 µM | 4.2 µM | 5.2 | 1.2 | 11.5 ± 1.5 µM | 9.3 µM | 1.4 | 29.6 ± 3.1 µM | 21.5 µM |  |  |  |  |  |  | 
Ir2(ppy)4Cl2 [reference compound] | 2.9 | 20.2 ± 2.3 µM | 7 µM | 4.3 | 1.7 | 19.6 ± 2.6 µM | 11.4 µM | 1.3 | 28.5 ± 2.4 µM | 21.3 µM |  |  |  |  |  |  | 
[Ir(N^C)2(N^N)](PF6) in which N^C = 2-phenylpyridine and N^N = 1-(2-benzimidazolyl)-β-carboline [Complex 2] | >625 | > 100 µM | 0.16 µM | > 769 | >833 | ≥ 100 µM | 0.12 µM |  | > 100 µM | 4.4 µM |  |  |  |  |  |  | increase in the mean fluorescence intensity of DCF (A549 cells [3]): ca. 17 fold; percentage of apoptotic cells (A549 cells [4]): 69.7%; IC50 (MCF-7 cells; incubated 12 h then 425 nm LED 15 min (36 J cm-2), read-out: IC50 Light): 0.13 ± 0.02 µM; selectivity of PDT in A549/LO2 co-culture (A549 and LO2 cells): high selectivity towards cancer over normal cells; fold higher phototoxicity against A549 cells than against LO2 cells (A549 cells [1]; light IC50 A549 vs LO2): over 36 fold; increase in caspase-3/7 activity ([2]; A549, 0.5 μM and light (36 J cm–2)): approximately 5.7 fold; increase in caspase-3/7 activity ([2]; A549, compound alone (dark)): negligible increase
